From patent publication US5358947A, “Angiotensin II receptor blocking 2,3-substituted pyrazolo[1,5-a]-1,3,5-triazin-4(3H)-ones” (American Cyanamid Company, priority 1993, dated 1994)
Where “and” joins values, the source holds several entries; their conditions need not be identical. Identical values can stand only once.

System: ANGIOTENSIN II (AII) VASOPRESSOR RESPONSE
Test: AII Challenge: angiotensin II (AII) vasopressor response in conscious rats
Format: in vivo
Set-up: Response After AII / Change / Average Change: unit not given here
Conditions: 10 mg/kg i.v.; for Change / Response After AII / Control Before AII: individual rat, listed as Ex. 12; for Control Before AII: in mmHg (unit assumed); for % Inhibition / Average Change: n = 2
From the text: By administering a compound of this invention to a rat, and then challenging with angiotensin II, a blockage of the vasopressor response is realized.
Conscious Male Okamoto-Aoki SHR, 16-20 weeks old, weighing approximately 330 g are purchased from Charles River Labs (Wilmington, Mass.). Conscious rats are restrained in a supine position with elastic tape. The area at the base of the tail is locally anesthetized by subcutaneous infiltration with 2% procaine. The ventral caudal artery and vein are isolated, and a cannula made of polyethylene (PE) 10-20 tubing (fused together by heat) is passed into the lower abdominal aorta and vena cava, respectively. The cannula is secured, heparinized (1,000 I.U./ml), sealed and the wound is closed. The animals are placed in plastic restraining cages in an upright position. The cannula is attached to s Statham P23Db pressure transducer, and pulsatile blood pressure is recorded to 10-15 minutes with a Gould Brush recorder. (Chan et al., (Drug Development Res., 18:75-94, 1989).
Angiotensin II (human sequence, Sigma Chem. Co., St. Louis, Mo.) of 0.05 and 0.1 ug/kg i.v. is injected into all rats (predosing response.). Then a test compound, vehicle or a known angiotensin II antagonist is administered i.v., i.p. or orally to each set of rats. The two doses of angiotensin II are given to each rat again at 30, 60, 90, 120, 180, 240 and 300 minutes post dosing the compound or vehicle. The vasopressor response of angiotensin II by a compound is calculated using the vasopressor response (increase in systolic blood pressure) of angiotensin II of each rat predosing the compound as 100%. A compound is considered active if at 30 mg/kg i.v. it antagonized at least 50% of the response.

[1] = AII 0.05 mcg/kg, 30 min post dose
[2] = AII 0.05 mcg/kg, 60 min post dose
[3] = AII 0.05 mcg/kg, 90 min post dose
[4] = AII 0.05 mcg/kg, 120 min post dose
[5] = AII 0.05 mcg/kg, 180 min post dose
[6] = AII 0.05 mcg/kg, 240 min post dose
[7] = AII 0.05 mcg/kg, 300 min post dose
[8] = AII 0.1 mcg/kg, 30 min post dose
[9] = AII 0.1 mcg/kg, 60 min post dose
[10] = AII 0.1 mcg/kg, 90 min post dose
[11] = AII 0.1 mcg/kg, 120 min post dose
[12] = AII 0.1 mcg/kg, 180 min post dose
[13] = AII 0.1 mcg/kg, 240 min post dose
[14] = AII 0.1 mcg/kg, 300 min post dose

## CCCCc1nc2cc(-c3ccc(F)cc3)nn2c(=O)n1Cc1ccc(-c2ccccc2-c2nnn[nH]2)cc1 [Example 12, 2-Butyl-7-(4-fluorophenyl)-3-[[2'-(1H-tetrazol-5-yl)[1,1'-biphenyl]-4-yl]methyl]pyrazolo[1,5-a]-1,3,5-triazin-4(3H)-one]
[1]
  Change: 10 and 20
  Response After AII: 205 and 245
  Control Before AII: 195 and 225
  % Inhibition: 73%
  Average Change: 15
[2]
  Change: 20 and 10
  Response After AII: 200 and 240
  Control Before AII: 180 and 230
  % Inhibition: 7%
  Average Change: 15
[3]
  Change: 20 and 25
  Response After AII: 185 and 250
  Control Before AII: 165 and 225
  % Inhibition: 59%
  Average Change: 22.5
[4]
  Change: 25 and 30
  Response After AII: 185 and 255
  Control Before AII: 160 and 225
  % Inhibition: 50%
  Average Change: 27.5
[5]
  Change: 10 and 33
  Response After AII: 195 and 240
  Control Before AII: 185 and 207
  % Inhibition: 61%
  Average Change: 21.5
[6]
  Change: 10 and 35
  Response After AII: 195 and 255
  Control Before AII: 185 and 220
  % Inhibition: 59%
  Average Change: 22.5
[7]
  Change: 15 and 35
  Response After AII: 200 and 260
  Control Before AII: 185 and 225
  % Inhibition: 55%
  Average Change: 25
[8]
  Change: 10 and 15
  Response After AII: 210 and 250
  Control Before AII: 200 and 235
  % Inhibition: 76%
  Average Change: 12.5
[9]
  Change: 15 and 30
  Response After AII: 205 and 250
  Control Before AII: 190 and 220
  % Inhibition: 57%
  Average Change: 22.5
[10]
  Change: 30 and 25
  Response After AII: 200 and 260
  Control Before AII: 170 and 235
  % Inhibition: 48%
  Average Change: 27.5
[11]
  Change: 25 and 42
  Response After AII: 195 and 267
  Control Before AII: 170 and 225
  % Inhibition: 36%
  Average Change: 33.5
[12]
  Change: 15 and 40
  Response After AII: 200 and 250
  Control Before AII: 185 and 210
  % Inhibition: 48%
  Average Change: 27.5
[13]
  Change: 15 and 45
  Response After AII: 200 and 270
  Control Before AII: 185 and 225
  % Inhibition: 43%
  Average Change: 30
[14]
  Change: 20 and 50
  Response After AII: 205 and 275
  Control Before AII: 185 and 225
  % Inhibition: 33%
  Average Change: 35
